Laboratory results from publication PMC7125202, “Targeting of radioactive platinum-bisphosphonate anticancer drugs to bone of high metabolic activity” (Scientific Reports, 2020).
Entries after “also recorded” stand apart in the source; their conditions may differ.

Columns and labels:
[1] = In vivo biodistribution of cold Pt-species, Pt quantified by ICP-MS; parameters: species or system C57Bl/6N mice; details: 24 h after i.v. injection
Protocol: The Pt-BP and Pt(NO3)2(en) complexes were administered intravenously in the tail vein of C57BL/6N mice (n = 5 per each platinum complex). Sterile saline solution (0.9% NaCl) was used to dissolve platinum complexes. The concentration of injected Pt-BP or Pt(NO3)2(en) solutions was 2.5 mM platinum, calculated based on the maximum tolerated dose for cisplatin of 6 mg per kg body weight of the mice[37]. The mice were euthanized with CO2 24 h after injection, after which blood (approximately 600 mg per mouse), liver, spleen, kidneys, heart, lungs, and bones (femur, humerus, tibia, and spine) were harvested. Approximately half of the tissues were prepared for inductively coupled plasma-mass spectrometry (ICP-MS) analysis by digestion in 65% (v/v) nitric acid at 75 °C for approximately three days until the tissues were digested completely. Each tissue was cut into three samples and the samples were weighed prior to digestion in nitric acid. The digested solutions were diluted with up to 6 ml of Milli-Q water to obtain 2% (v/v) nitric acid in order to measure platinum concentrations by ICP-MS (X series I, Thermo Electron Corporation). The detection limit for determining platinum concentration with ICP-MS was 1 ppb. The standard solutions were prepared from 1000 mg·1^−1 platinum ICP standard Certipur (1.70341.0100, Merck) ranging from 1 ppb to 2500 ppb. The measured isotopes for platinum were ^194Pt, ^195Pt, ^196Pt, and ^198Pt. Furthermore, scandium (^45Sc) was added as an internal standard, which was prepared with 1000 mg·1^−1 scandium standard Certipur (1.19513.0100, Merck) to correct for matrix effects and long-term fluctuations of the measurement signal. The platinum concentrations in the various tissues were calculated relative to 1 mg of the specific tissue and represented as ng Pt/mgtissue. Three replicates of Pt-BP and Pt(NO3)2(en) solutions with volumes and platinum concentrations identical to the solutions injected to the mice (200 µl and 2.5 mM platinum, respectively) were also analyzed for their platinum content using ICP-MS as control. The percentage of injected dose (%ID) of Pt-BP and Pt(NO3)2(en) in each mouse tissue 24 h after injection was calculated by dividing the total amount of platinum per tissue through the total amount of platinum detected in the control solutions[52].

genomic DNA = test: Pt-DNA adducts quantification using High Resolution ICP-MS; format: in vivo, C57Bl/6N mice; details: 24 h after i.v. injection
Source text: The remaining half of the tissues from all mice were dissected and weighed for DNA extraction. DNA was isolated using DNeasy Blood & Tissue Kit (Qiagen, USA) for soft tissue and ChargeSwitch® gDNA Plant Kit (Thermofisher, USA) for bone samples. The DNA was digested with DNase I Solution (Thermofisher, USA) and filtered using 0.2 µm acrodisc GHP before analysis for Pt content using high resolution-ICP-MS (Element2, Thermo Finnigan). The detection limit for determining the platinum concentration was 2 ng/l. The standard solutions were prepared from 1000 mg·1^−1 platinum ICP standard Certipur (1.70341.0100, Merck) ranging from 5 ppt to 10 ppb. The selected isotopes for platinum were ^194Pt and ^195Pt. Furthermore, thallium (Tl) was added as an internal standard and determined at a molecular mass of 205 Da, which was prepared using a 1000 mg·1^−1 thallium standard (CGTL-1, Inorganic Ventures) to correct for matrix effects and long-term fluctuations of the analytical signal. The Pt-DNA adduct concentration is represented as percentage of Pt involved in adduct formation to the total amount of Pt accumulated in the specific tissue.

zebrafish embryos = test: Phenotypic assessment of drug-treated zebrafish embryos; format: in vivo, zebrafish (Danio rerio); details: up to a concentration of 100 µM, until 2 days post treatment
Protocol: The zebrafish (Danio rerio) strains were kept under standard conditions (28 °C in E3 buffer) until 48 hours post fertilization (hpf) as described previously. All animal experiments were conducted at larval stages before the point of independent feeding and were in agreement with the animal protection law (Tierschutzgesetz).
48 hpf wildtype embryos were separated into 6 groups (n = 20 embryos/group), i.e., control (untreated) and embryos treated with 5 µM, 10 µM, 50 µM, and 100 µM Pt-BP as well as 30 µM cisplatin. Both types of compounds were added externally to the medium and the embryos were incubated at 33 °C for the duration of the experiment. The embryos were assessed each day for phenotypic toxicity until 2 days post treatment (48 hpt) and imaged live in an Olympus MVX10 microscope.

[2] = test system: lateral line neuromast hair cells; test: Ototoxicity assay, DASPEI staining; format: in vivo, zebrafish (Danio rerio); details: 48 h post treatment, 5, 10 and 50 µM
Protocol: The lateral line neuromast hair cells in embryos were stained with a vital dye to analyse the loss of hair cells after Pt-BP treatment. Cisplatin was used as a control, as it was known to affect hair cells in humans. The fluorescent dye 2-[4-(dimethylamino)styryl]-N-ethylpyridinium iodide (DASPEI) [Molecular Probes, Eugene, OR] was used to stain hair cells in the neuromast as described previously. Larvae were incubated in embryo medium containing 0.005% DASPEI for 15 min, anesthetized in Tricaine MS222 (10 µg/ml) for 5 min, rinsed once in fresh embryo medium, and imaged using Vertebrate automated screening technology (VAST, Union Biometrica), combined with high-speed and super-resolution Zeiss cell observer spinning disk confocal system. The quantification of number of neuromast hair cells in the treated embryos was done manually with confocal microscopy (Zeiss LSM780).

NCCN.NCCN.O.O.O.O=S(=O)([O-])O.[NH3+]CC1(O)P2(=O)[O][Pt][O]P1(=O)[O][Pt][O]2 (centres unmarked) [Pt-BP, dinuclear bis<ethylenediamineplatinum(II) > -2-amino-1-hydroxyethane-1,1-diyl-bisphosphonate complex]
higher affinity for bone compared to Pt(NO3)2(en) [1]: 4.5 fold
Pt uptake in hard tissue ([1]; 2.5 mM Pt): 12.18 ± 0.56 %ID/g
Pt uptake in kidney ([1]; 2.5 mM Pt): 5.70 ± 0.15 %ID/g
Pt uptake in liver ([1]; 2.5 mM Pt): 2.34 ± 0.17 %ID/g
Pt uptake in spleen ([1]; 2.5 mM Pt): 1.22 ± 0.12 %ID/g
Pt accumulation in hard tissue (bone) ([1]; 2.5 mM Pt, normalized for tissue weight): ~ 3 ng Pt/mg tissue
Pt-DNA adduct formation relative to total Pt uptake, all tissues except kidney and spleen (genomic DNA): < 0.5%
Pt-DNA adduct formation relative to total Pt uptake, kidney (genomic DNA): 2.8%
Pt-DNA adduct formation relative to total Pt uptake, spleen (genomic DNA): 1.4%
visible phenotypic effects (zebrafish embryos): did not show any phenotypic abnormality; also recorded: no visible phenotypic effects
ototoxic effect (lateral line neuromast hair cell quantification) [2]: dose-dependent ototoxic effect
